Experimental data: patent US20220184092A1, “ANTI-VIRAL ACTIVITY OF VPS34 INHIBITORS” (Deciphera Pharmaceuticals, LLC, priority 2020, published 2022)
Read-outs that look alike come from different tables or passages of the source.

Assays:
SARS CoV-2 = SARS CoV-2 CPE assay for antiviral activity in Vero E6 host cells; format: cell-based, coronavirus USA_WA1/2020 SARS CoV-2; details: read-out: IC50 for inhibition of SARS CoV-2 mediated cell killing
SARS-CoV-2 = assay: microbe, parasite or virus in culture; format: cell-based; details: Severe acute respiratory syndrome coronavirus 2, A549, 48 h; read-out: IC50 for inhibition of SARS CoV-2 mediated cell killing
Vero E6 cells = assay: in vitro; format: cell-based; details: African green monkey, 72 h
Experimental: (§1) Compound cytotoxicity (CC50) is assessed in a BSL-2 counter screen as follows: Host cells in media are added in 25 μl aliquots (4000 cells/well) to each well of assay ready plates prepared with test compounds as above. […] DMSO is maintained at a constant concentration for all wells (0.3%) as dictated by the dilution factor of stock test compound concentrations. After incubating plates at 37° C./5% CO2 and 90% humidity for 72 hours, 30 μl Cell Titer-Glo (Promega) is added to each well. Luminescence is read using a BMG PHERAstar plate reader following incubation at room temperature for 10 minutes to measure cell viability.

in vitro = format: cell-based; details: African green monkey
Experimental: as §1

[1] = Vero C1008, Vero E6 cells, CPE assay, 72 hours, 10-point dose response, high concentration 15 μM

C[C@@H]1COCCN1c1cc(-c2ccccc2C(F)(F)F)[nH]c(=O)c1 [Compound 1]
IC50 (SARS CoV-2; [1]): 3.91 µM
IC50 (SARS-CoV-2): 2.05 µM
CC50 (Vero E6 cells): > 30 µM
CC50 at 72 h (in vitro): > 30 µM

C[C@@H]1COCCN1c1cc(-c2ccccc2Cl)[nH]c(=O)c1 [Compound 2]
IC50 (SARS CoV-2; [1]): 2.76 µM
IC50 (SARS-CoV-2): 0.83 µM
CC50 (Vero E6 cells): > 30 µM
CC50 at 72 h (in vitro): > 30 µM

Cc1cscc1-c1cc(N2CCOC[C@H]2C)cc(=O)[nH]1 [Compound 3]
IC50 (SARS CoV-2; Vero C1008, 72 h): > 10 µM
IC50 (SARS-CoV-2): 6.39 µM
CC50 (Vero E6 cells): > 10 µM
CC50 at 72 h (in vitro): > 10 µM
